These results are taken from US20250179017A1 (GUANGDONG NEWOPP BIOPHARMACEUTICALS CO., LTD., priority 2022, published 2025).

In general, IC50 refers to the concentration that inhibits the measured activity by half. Low values mean greater potency, high ones weaker potency.

A value given as a limit tells only on which side of the number the result lay.

The target in this experiment is T1, human EP2 (PTGER2) (Homo sapiens, UniProt P43116).
T1 construct: Cayman Chemical (Human EP2 Reporter Assay Kit)
T1 sequence (P43116 whole entry): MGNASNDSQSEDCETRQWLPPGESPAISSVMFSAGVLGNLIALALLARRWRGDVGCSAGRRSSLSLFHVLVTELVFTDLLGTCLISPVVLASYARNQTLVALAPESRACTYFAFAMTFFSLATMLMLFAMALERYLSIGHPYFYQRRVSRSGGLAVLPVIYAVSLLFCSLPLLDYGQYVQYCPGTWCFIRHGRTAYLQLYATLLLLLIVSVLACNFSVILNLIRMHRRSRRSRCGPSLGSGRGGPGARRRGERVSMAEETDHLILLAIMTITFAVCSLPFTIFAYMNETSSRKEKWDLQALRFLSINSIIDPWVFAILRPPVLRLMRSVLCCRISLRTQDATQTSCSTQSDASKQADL
Put plainly: EP2 antagonist assay (HEK-293 CNG membrane potential cAMP assay / 293T SEAP reporter assay, PGE2-stimulated). In kind it is cell-based. The note with it: EP2 antagonist activity; concentration for 50% inhibition of signal compared to DMSO. A digest of the protocol:
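HEK-293 CNG cells expressing human EP2: compound preincubated 15 min at RT, then PGE2 at 5 nM final, 30 min; membrane-potential dye fluorescence (ex 530, em 590 nm), background-subtracted, gave IC50. Alternatively, 293T cells reverse-transfected with EP2 and CRE-SEAP, compound plus 13 nM PGE2 for 6-8 h, SEAP luminescence.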
For orientation: Cyclic AMP is a second messenger, typically raised through Gs and lowered through Gi signalling.
For `O=C(O)c1ccc(C2(NC(=O)c3cc(-c4cc(F)cc(F)c4)cc4ccn(Cc5cccc(C(F)(F)F)c5)c34)CC2)cc1` [Example 132, 4-(1-(5-(3,5-difluorophenyl)-1-(3-(trifluoromethyl)benzyl)-1H-indole-7-carboxamido)cyclopropyl)benzoic acid], the IC50 lay in the range of 0.1 to 1 µM.

`C[C@@H](NC(=O)c1ccc(-c2ccc(F)cc2)c2ccn(Cc3ccc(C(F)(F)F)cc3)c12)c1ccc(C(=O)O)cc1` [Example 35, (R)-4-(1-(4-(4-fluorophenyl)-1-(4-(trifluoromethyl)benzyl)-1H-indole-7-carboxamido)ethyl)benzoic acid] yielded an IC50 of at least 1 µM.

As for `O=C(O)c1ccc(C2(NC(=O)c3ccc(-c4cc(F)cc(C(F)(F)F)c4)c4ccn(Cc5ccc(C(F)(F)F)cc5)c34)CC2)cc1` [Example 41, 4-(1-(4-(3-fluoro-5-(trifluoromethyl)phenyl)-1-(4-(trifluoromethyl)benzyl)-1H-indole-7-carboxamido)cyclopropyl)benzoic acid], the IC50 is at least 1 µM.

`O=C(O)c1ccc(C2(NC(=O)c3cc(-c4ccccc4)cc4ccn(Cc5cccc(C(F)(F)F)c5)c34)CC2)cc1` [Example 131, 4-(1-(5-phenyl-1-(3-(trifluoromethyl)benzyl)-1H-indole-7-carboxamido)cyclopropyl)benzoic acid]: the half-inhibitory concentration (IC50) was in the range of 0.1 to 1 µM.

In turn, `O=C(O)c1ccc(CNC(=O)c2cc(-c3cc(Cl)cc(Cl)c3)cc3ccn(Cc4ccc(C(F)(F)F)cc4)c23)cc1` [Example 88, 4-((5-(3,5-dichlorophenyl)-1-(4-(trifluoromethyl)benzyl)-1H-indole-7-carboxamido)methyl)benzoic acid] registered a concentration for half-maximal inhibition (IC50) of 0.1 to 1 µM.

`O=C(O)c1ccc(CNC(=O)c2ccc(-c3cccc(C(F)(F)F)c3)c3ccn(Cc4ccc(C(F)(F)F)cc4)c23)cc1` [Example 24, 4-((1-(4-(trifluoromethyl)benzyl)-4-(3-(trifluoromethyl)phenyl)-1H-indole-7-carboxamido)-methyl)benzoic acid]: the IC50 was at least 1 µM.

`O=C(O)c1ccc(CNC(=O)c2cc(-c3cc(F)cc(F)c3)cc3cnn(Cc4ccc(-c5ccc(F)cc5)cc4)c23)cc1` [Example 186, 4-((5-(3,5-difluorophenyl)-1-((4′-fluoro-[1,1′-biphenyl]-4-yl)methyl)-1H-indazole-7-carboxamido)methyl)benzoic acid] displayed an IC50 below 0.1 µM.

Take `O=C(O)c1ccc(CNC(=O)c2ccc(Nc3ccc(Cl)c(F)c3)c3ccn(Cc4ccc(C(F)(F)F)cc4)c23)cc1` [Example 71, ((4-((4-chloro-3-fluorophenyl)amino)-1-(4-(trifluoromethyl)benzyl)-1H-indole-7-carboxamido)methyl)benzoic acid acid]: the half-maximal inhibitory concentration (IC50) is 0.1 to 1 µM.

`CS(=O)(=O)c1cccc(-c2cc(C(=O)NCc3ccc(C(=O)O)cc3)c3c(ccn3Cc3ccc(C(F)(F)F)cc3)c2)c1` [Example 84, 4-((5-(3-(methylsulfonyl)phenyl)-1-(4-(trifluoromethyl)benzyl)-1H-indole-7-carboxamido)methyl)benzoic acid] yielded an IC50 below 0.1 µM.

In the case of `C[C@H](NC(=O)c1cc(-c2ccccc2)cc2ccn(Cc3ccc4ccccc4c3)c12)c1ccc(C(=O)O)cc1` [Example 162, (S)-4-(1-(1-(naphthalen-2-ylmethyl)-5-phenyl-1H-indole-7-carboxamido)ethyl)benzoic acid], the IC50 is below 0.1 µM.

In the case of `C[C@@H](NC(=O)c1cc(-c2cc(F)cc(C(F)(F)F)c2)cc2ccn(Cc3ccc(C(F)(F)F)cc3)c12)c1ccc(C(=O)O)cc1` [Example 16, (R)-4-(1-(5-(3-fluoro-5-(trifluoromethyl)phenyl)-1-(4-(trifluoromethyl)benzyl)-1H-indole-7-carboxamido)ethyl)benzoic acid], the IC50 is at least 1 µM.

The compound `O=C(O)c1ccc(CNC(=O)c2cc(-c3cccc(Cl)c3)cc3ccn(Cc4ccc(C(F)(F)F)cc4)c23)cc1` [Example 75, 4-((5-(3-chlorophenyl)-1-(4-(trifluoromethyl)benzyl)-1H-indole-7-carboxamido)methyl)benzoic acid] yielded a concentration for half-maximal inhibition (IC50) below 0.1 µM.
